Columns and labels:
COX-2 = biological target: T1, COX-2 (Homo sapiens, UniProt P35354); assay: COX-2 inhibition, enzyme immunoassay (EIA); format: biochemical; details: ratio of COX-1 IC50 to COX-2 IC50
T1 sequence (P35354 18-604): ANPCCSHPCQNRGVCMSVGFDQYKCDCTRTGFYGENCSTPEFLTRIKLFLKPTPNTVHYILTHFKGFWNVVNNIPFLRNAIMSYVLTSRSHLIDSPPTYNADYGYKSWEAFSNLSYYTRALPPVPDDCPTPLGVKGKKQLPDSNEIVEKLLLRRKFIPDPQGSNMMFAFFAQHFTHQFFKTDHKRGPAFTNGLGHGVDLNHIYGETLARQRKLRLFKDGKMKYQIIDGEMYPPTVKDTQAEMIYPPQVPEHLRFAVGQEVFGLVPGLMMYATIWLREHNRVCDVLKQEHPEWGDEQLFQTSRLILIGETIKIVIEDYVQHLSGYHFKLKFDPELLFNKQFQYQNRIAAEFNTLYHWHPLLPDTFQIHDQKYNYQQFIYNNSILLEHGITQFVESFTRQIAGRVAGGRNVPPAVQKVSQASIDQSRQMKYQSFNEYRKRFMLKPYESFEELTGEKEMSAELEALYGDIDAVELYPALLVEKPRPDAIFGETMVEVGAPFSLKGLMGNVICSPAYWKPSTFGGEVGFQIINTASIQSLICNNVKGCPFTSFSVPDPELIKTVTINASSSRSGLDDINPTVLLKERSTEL
Description: Exemplary conjugates as described herein were tested in vitro for inhibition of COX-1 and COX-2, using an enzyme immunoassay (EIA), as follows.
Cyclooxygenase catalyzes the first step in the biosynthesis of arachidonic acid (AA) to PGH2. PGF2α, produced from PGH2 by reduction with stannous chloride, is measured by enzyme immunoassay (ACETM competitive EIA).
Stock solutions of test compounds were dissolved in a minimum volume of DMSO. Briefly, to a series of supplied reaction buffer solutions (960 μl, 0.1M Tris-HCl pH 8.0 containing 5 mM EDTA and 2 mM phenol) with either COX-1 or COX-2 (10 μl) enzyme in the presence of heme (10 μl) were added 10 μl of various concentrations of test drug solutions (0.01, 0.1, 1, 10, 50, and 100 μM in a final volume of 1 ml). These solutions were incubated for a period of 5 minutes at 37° C. after which 10 μL of AA (100 μM) solution were added and the COX reaction was stopped by the addition of 50 μl of 1M HCl after 2 minutes. PGF2α, produced from PGH2 by reduction with stannous chloride was measured by enzyme immunoassay.
This assay is based on the competition between PGs and a PG-acetylcholinesterase conjugate (PG tracer) for a limited amount of PG antiserum. The amount of PG tracer that is able to bind to the PG antiserum is inversely proportional to the concentration of PGs in the wells since the concentration of PG tracer is held constant while the concentration of PGs varies. The concentration of the test compound causing 50% inhibition (IC50, μM) was calculated from the concentration-inhibition response curve (duplicate determinations).

[1] = test system: oxazolone-induced allergic dermatitis; assay: Murine oxazolone-induced allergic dermatitis; format: in vivo, mice; details: hematoxylin and eosin stained sections
From the text: An allergic form of contact dermatitis can be induced in mice by repeated epicutaneous application of the chemical sensitizer oxazolone. This leads to local augmented thickness and weight increase of the skin area where the rechallenge was applied; from the histological point of view, oxazolone-induced dermatitis is characterized by severe mononuclear cell infiltration of the dermis with in situ production of the type 1 proinflammatory cytokines TNF-alpha, IL-1alpha and IFN-gamma. These well-defined mechanistic pathways of inflammatory skin damage make oxazolone-dermatitis a useful in vivo tool for pathogenic studies and a pharmacodynamic parameter to screen drugs of potential utility in counteracting type 1 cytokine dependent cutaneous immunoinflammatory responses such as those found in some forms of bullous disorders, cutaneous vasculitis and psoriasis.
The efficacy of MWL001 in the treatment of Murine oxazolone-induced allergic dermatitis was evaluated. MWL001 and DEX were administered one hour after the second challenge with oxazolone.
The mice were sensitized on day 0 by a single application of 10 ∞l of 2% oxazolone (Sigma Chimica, Milan, Italy) in ethanol to the inner and outer surface of the left ear. The disease was elicited by local rechallenge on day 7 with 15% oxazolone. The right ear was treated with the vehicle of oxazolone (acetone). Eighteen hours after […] the mice are sacrificed under ether anesthesia and both the right and left ears were excised.
Inflammation was assessed as the percentage increase in ear thickness and/or ear weight in the treated left ear vs. the vehicle-treated right ear. Ear thickness was measured with a digital calliper. The extent of the inflammation was quantified as follows: ear swelling (%)=100×(a−b)/b, where a is thickness/weight of the left (treated) ear and b is the thickness/weight of the right (untreated) ear.
Ear tissue samples were fixed with 4% formaldehyde in phosphate-buffered saline (PBS) and embedded in paraffin. Thereafter, 6-μm sections were deparaffinized with xylene, stained with hematoxylin-eosin and observed with a Zeiss microscope (Jena, Germany).

DNBS-induced colitis = assay: DNBS-induced experimental colitis in mice, oral administration; format: in vivo; details: day four after DNBS, MWL001 50 mg/kg oral daily
Description: In this study, the effect of MWL001 on pro-inflammatory mediators in DNBS-induced experimental colitis in mice was evaluated. In particular it was observed that there was no expression of TNF-α, CD4, TGF-13, CD25 in the colon tissue from sham-treated mice. MWL001 and DEX were administered orally and daily starting at six hours after the DNBS challenge.
Colitis was induced with a very low dose of 2,4-dinitrobenzene sulfonic acid (DNBS) (4 mg per mouse) by using a modification of the method first described in mice. […] Mice were anesthetized by Enflurane. DNBS (4 mg in 100 μl of 50% ethanol) was injected into the rectum through a catheter inserted 4.5 cm proximally to the anus. The carrier alone (100 μl of 50% ethanol) was administered in control experiments. Thereafter, the animals were kept for 15 minutes in a Trendelenburg position to avoid reflux. […] On Day four, the animals were weighed and anaesthetized with chloral hydrate, and their abdomen was opened by a midline incision. The colon was removed, freed from surrounding tissues, opened along the antimesenteric border and processed for histology.
TNF-α and IL-6 levels were evaluated and colon tissues collected at four days after DNBS administration. Briefly, portions of terminal colon were homogenized as previously described in phosphate-buffered saline (PBS, ICN Biomedicals, Milan, Italy) containing two mmol/L of phenyl-methyl sulfonyl fluoride (PMSF, Sigma Chemical Co.). The assay was carried out using a colorimetric, commercial kit (R&D system Milan, Italy) according to the manufacturer instructions. All cytokines determinations were performed in duplicate serial dilutions.
At four days after DNBS administration, colon tissues were fixed in 10% (w/v) PBS-buffered formaldehyde and 7 μm sections were prepared from paraffin embedded tissues. After deparaffinization, endogenous peroxidase was quenched with 0.3% (v/v) hydrogen peroxide in 60% (v/v) methanol for 30 min. The sections were permeabilized with 0.1% (w/v) Triton X-100 in PBS for 20 min. Non-specific adsorption was minimized by incubating the section in 2% (v/v) normal goat serum in PBS for 20 min. Endogenous biotin or avidin binding sites were blocked by sequential incubation for 15 min with biotin and avidin (Vector Laboratories, Burlingame, Calif.), respectively. Sections were incubated overnight with: 1) purified polyclonal antibody directed towards CD4 (Santa Cruz Biotechnology, 1:500 in PBS, v/v) or 2) with purified anti-CD25 (Santa Cruz Biotecnology 1:500 in PBS, w/v) or 3) with anti- TNF-α polyclonal antibody (Santa Cruz Biotechnology, N-19:sc-1350, 1:500 in PBS, v/v) or 4) with anti-TGF-β polyclonal antibody (Santa Cruz, 1:500 in PBS, v/v).
Sections were washed with PBS, and incubated with a secondary antibody. Specific labelling was detected with a biotin-conjugated goat anti-rabbit IgG and avidin-biotin peroxidase complex (Vector Laboratories, Burlingame, Calif.).

[2] = test system: collagen induced arthritis; assay: Collagen induced arthritis (CIA), arthritis score, paw thickness, body weight; format: in vivo, DBA/1J mice; details: 50 mg/kg IP; for day from which arthritis score (AS) increases: 3 times a week, 12 administrations; for CIA development: overall conclusion; for arthritis thickness index (ATI) increase: from day 0 to day 70, groups 1M DHA-Tau, 2M DHA, 4M Ibuprofen
Description: In a different study, 34 male 8-10 weeks old DBA/1J mice were used. Animals were fed ad libitum a commercial rodent diet (Teklad Certified Global 18% Protein Diet cat #: 106S8216). Animals had free access to acidified drinking water (pH between 2.5 and 3.0) obtained from the municipality supply.
The effect of MWL-002 (conjugate of DHA and taurine) was tested and compared to that of Ibuprofen. Cremophore EL was used as a vehicle.
On day 0, each mouse was anesthetized by inhalation of 3% isofluorane and injected intradermally at the base of the tail with 0.1 ml of emulsion containing 100 μg collagen, using a 1-ml glass syringe with a 26-guade needle. Booster injection was performed at day 15 to the same injection site.
The tested materials were administered 3 times a week, via IP for a total of 12 administrations starting on day 1.
Observations for clinical score were performed twice weekly until study termination.
The severity of arthritis was scored based on the level of inflammation in each of the four paws and recorded as one of five grades according to the following:
Hind paw thickness (edema) was measured by digital caliper once a week until Day 14 and thereafter twice weekly and prior to study termination. Two cross sectional areas were marked, one on the paw and the other at the ankle (tarsal joint). Two measurements were made on each section, perpendicular to each other. The results obtained were calculated as the average areas of both hind limbs per animal.
Body weight was measured prior to dosing, during the study twice a week and prior to study termination.

## CCCCCCCC/C=C\CCCCCCCC(=O)n1cc(CC(=O)O)c2cc(O)ccc21 [MWL-007, N-oleoyl-5-hydroxy-indol-3-yl-acetic acid]
COX-2
  Ratio (COX ½): 15.83

## C[C@@H]1C[C@H]2[C@@H]3CCC4=CC(=O)C=C[C@]4(C)[C@@]3(F)[C@@H](O)C[C@]2(C)[C@@]1(O)C(=O)CO [DEX, dexamathasone, reference compound]
[1]
  histology: ear thickness and inflammatory cells in epidermis and dermis: markedly reduced
DNBS-induced colitis; colorimetric kit
  IL-6 colon levels: significant reduction
  TNF-α colon levels: significant reduction
DNBS-induced colitis; immunostaining
  expression of CD4 in colon tissue: significantly reduced
  expression of CD25 in colon tissue: significantly reduced
  expression of TGF-β in colon tissue: significantly reduced
  expression of TNF-α in colon tissue: significantly reduced

## CC/C=C\C/C=C\C/C=C\C/C=C\C/C=C\C/C=C\CCC(=O)O [DHA, all-cis-4,7,10,13,16,19-docosahexaenoic acid]
[2]
  day from which arthritis score (AS) increases: 40 days
  CIA development: not substantially effective
  arthritis thickness index (ATI) increase: 180%

## CC(C)Cc1ccc(C(C)C(=O)O)cc1 (centres unmarked) [Ibuprofen]
[2]
  day from which arthritis score (AS) increases: 40 days
  CIA development: not substantially effective
  arthritis thickness index (ATI) increase: 190%

Reference: patent US20130158070A1, “CONJUGATES OF POLYUNSATURATED FATTY ACIDS AND AMINE-CONTAINING COMPOUNDS AND USES THEREOF” (priority 2010, published 2013)
